Values quoted from earlier work as cited in patent publication US20250302774A1, “LISDEX[…] OROD[…] AND PROCESS FOR PREPARATION THEREOF” (ATHENA PHARM[…], priority 2024, published 2025).
Where two headings read alike, the source gives them in different places.

Legend:
[1] = active substance, exposed to moisture, dimethanesulfonate

CS(=O)(=O)O.CS(=O)(=O)O.C[C@@H](Cc1ccccc1)NC(=O)[C@@H](N)CCCCN [Lisdexamfetamine dimesylate, (2S)-2,6-diamino-N-[(1S)-1-methyl-2-phenylethyl]-hexanamide, dimethanesulfonate]
solubility (in acetone): very slightly soluble
solubility (in chloroform): very slightly soluble
solubility (in ethanol): soluble
solubility (in methanol): freely soluble
solubility (in tetrahydrofuran): practically insoluble
solubility (in toluene): very slightly soluble
hygroscopic / deliquescent nature [1]: highly deliquescent
hygroscopic / deliquescent nature ([1]; listed as lisdexamfetamine dimesylate): hygroscopic
